Test results taken from patent publication US20210007356A1, “IMIDE DERIVATIVE AND FUNGICIDE CONTAINING SAID DERIVATIVE AS ACTIVE INGREDIENT” (HOKKO CHEMICAL INDUSTRY CO., LTD., priority 2018, published 2021).
Where two headings read alike, the source gives them in different places.

What was measured:
[1] = test system: barley powdery mildew fungus (Erysiphe graminis); experiment: Test Example 2: control effect against barley powdery mildew by foliage application; format: in vivo; conditions: wettable powder diluted to 100 ppm, 10 mL per pot foliage spray on barley; inoculated day after; 7 days after inoculation
[2] = test system: rice blast fungus (Pyricularia grisea); format: in vivo; conditions: flowable 5,000 ppm, 50 mL irrigation of nursery box, paddy rice; inoculated after 3 weeks; 7 days after inoculation
[3] = test system: rice blast fungus (Pyricularia grisea); format: in vivo; conditions: 5 g of granule on nursery box, paddy rice; inoculated after 3 weeks; 7 days after inoculation
[4] = test system: rice blast fungus (Pyricularia grisea); format: in vivo; conditions: flowable 1,000 ppm, 1 mL dripped in paddy water, inoculated after 1 week, 7 days after inoculation
[5] = test system: rice sheath blight fungus (Thanatephorus cucumeris); experiment: Test Example 8: control effect against rice sheath blight by box treatment (granule); conditions: 5 g of granule on nursery box, paddy rice; inoculated after 3 weeks; 7 days after inoculation
Source text: Control value (%)=[1−(lesion height in sprayed plot/lesion height in unsprayed plot)]×100 (d)
From the top of a nursery box, 5 g of a granule prepared according to Formulation Example-4 was applied to a 2.5-leaf-stage paddy rice (variety: Asahi) seedling raised using a nursery box ( 1/10 the area of standard nursery box in size: 12 cm×15 cm×height 4 cm) within a greenhouse. The formulation-treated paddy rice seedling was immediately transplanted at 5 seedlings/pot into a pot ( 1/10000 are in size) filled with paddy soil (flooded). After growing for 3 weeks within a greenhouse, a culture of rice sheath blight fungus (Thanatephorus cucumeris) grown in advance on a rice straw medium was inoculated into the root of the formulation-treated paddy rice, and disease development was promoted in an artificial weather chamber at 26° C. (relative humidity=100%). Seven days after the inoculation, the rice sheath blight lesion height (height from the root) was examined, and the control value (%) was calculated according to formula (d). […] This test was performed with three replications, each consisting of one plot and one pot, per one formulation plot, and its average evaluation value of control effect was determined.

[6] = test system: rice sheath blight fungus (Thanatephorus cucumeris); experiment: Test Example 6: control effect against rice sheath blight by box treatment (flowable formulation); conditions: flowable 5,000 ppm, 50 mL irrigation of nursery box, paddy rice; inoculated after 3 weeks; 7 days after inoculation
[7] = test system: rice sheath blight fungus (Thanatephorus cucumeris); experiment: Test Example 10: control effect against rice sheath blight by water surface application (flowable formulation); conditions: flowable 1,000 ppm, 1 mL dripped in paddy water, inoculated after 1 week, 7 days after inoculation

## CC(C)CC(C)c1ccccc1N(C(=O)c1cc(Cl)c(Cl)s1)C(=O)c1cn(C)nc1C(F)F (stereo not shown) [1-359]
[1]
  evaluation value of control effect (from control value, lesion area percentage): 4
[2]
  evaluation value of control effect (from control value, number of lesions): 5
[3]
  evaluation value of control effect (from control value, number of lesions): 5
[4]
  evaluation value of control effect (from control value, number of lesions): 5
[5]
  evaluation value of control effect (from control value, lesion height): 5
[6]
  evaluation value of control effect (from control value, lesion height): 5
[7]
  evaluation value of control effect (from control value, lesion height): 5

## Cn1cc(C(=O)N(C(=O)c2cc(Cl)nc(Cl)c2)c2ccccc2-c2cc(F)c(F)c(F)c2)c(C(F)F)n1 [1-375]
[1]
  evaluation value of control effect (from control value, lesion area percentage): 4
[2]
  evaluation value of control effect (from control value, number of lesions): 5
[3]
  evaluation value of control effect (from control value, number of lesions): 5
[4]
  evaluation value of control effect (from control value, number of lesions): 5
[5]
  evaluation value of control effect (from control value, lesion height): 5
[6]
  evaluation value of control effect (from control value, lesion height): 5
[7]
  evaluation value of control effect (from control value, lesion height): 5

## CC(C)CC(C)c1ccccc1N(C(=O)c1cc(F)nc(F)c1)C(=O)c1cn(C)nc1C(F)F (stereo not shown) [1-380]
[1]
  evaluation value of control effect (from control value, lesion area percentage): 5
[2]
  evaluation value of control effect (from control value, number of lesions): 5
[3]
  evaluation value of control effect (from control value, number of lesions): 5
[4]
  evaluation value of control effect (from control value, number of lesions): 5
[5]
  evaluation value of control effect (from control value, lesion height): 5
[6]
  evaluation value of control effect (from control value, lesion height): 5
[7]
  evaluation value of control effect (from control value, lesion height): 5

## Cc1nc(C(F)F)c(C(=O)N(C(=O)c2snc(Cl)c2Cl)c2ccccc2CCC(C)C)s1 [7-37]
[1]
  evaluation value of control effect (from control value, lesion area percentage): 4
[2]
  evaluation value of control effect (from control value, number of lesions): 5
[3]
  evaluation value of control effect (from control value, number of lesions): 5
[4]
  evaluation value of control effect (from control value, number of lesions): 5
[5]
  evaluation value of control effect (from control value, lesion height): 5
[6]
  evaluation value of control effect (from control value, lesion height): 5
[7]
  evaluation value of control effect (from control value, lesion height): 5

## Cc1nc(C(F)F)c(C(=O)N(C(=O)c2snc(Cl)c2Cl)c2ccccc2C(C)CC(C)C)s1 (stereo not shown) [7-38, N-(3,4-Dichloroisothiazole-5-carbonyl)-4-(difluoromethyl)-N-{2-(1,3-dimethylbutyl)phenyl}-2-methyl-thiazole-5-carboxamide]
[1]
  evaluation value of control effect (from control value, lesion area percentage): 5
[2]
  evaluation value of control effect (from control value, number of lesions): 5
[3]
  evaluation value of control effect (from control value, number of lesions): 5
[4]
  evaluation value of control effect (from control value, number of lesions): 5
[5]
  evaluation value of control effect (from control value, lesion height): 5
[6]
  evaluation value of control effect (from control value, lesion height): 5
[7]
  evaluation value of control effect (from control value, lesion height): 5

## Cc1nc(C(F)F)c(C(=O)N(C(=O)c2snnc2C)c2ccccc2CCC(C)C)s1 [7-151]
[1]
  evaluation value of control effect (from control value, lesion area percentage): 4
[2]
  evaluation value of control effect (from control value, number of lesions): 5
[3]
  evaluation value of control effect (from control value, number of lesions): 5
[4]
  evaluation value of control effect (from control value, number of lesions): 5
[5]
  evaluation value of control effect (from control value, lesion height): 5
[6]
  evaluation value of control effect (from control value, lesion height): 5
[7]
  evaluation value of control effect (from control value, lesion height): 5

## Cc1nc(C(F)F)c(C(=O)N(C(=O)c2snnc2C)c2ccccc2C(C)CC(C)C)s1 (stereo not shown) [7-152]
[1]
  evaluation value of control effect (from control value, lesion area percentage): 5
[2]
  evaluation value of control effect (from control value, number of lesions): 5
[3]
  evaluation value of control effect (from control value, number of lesions): 5
[4]
  evaluation value of control effect (from control value, number of lesions): 5
[5]
  evaluation value of control effect (from control value, lesion height): 5
[6]
  evaluation value of control effect (from control value, lesion height): 5
[7]
  evaluation value of control effect (from control value, lesion height): 5

## Cc1nc(C(F)F)c(C(=O)N(C(=O)c2snnc2C(F)F)c2ccccc2C(C)CC(C)C)s1 (stereo not shown) [7-176]
[1]
  evaluation value of control effect (from control value, lesion area percentage): 5
[2]
  evaluation value of control effect (from control value, number of lesions): 5
[3]
  evaluation value of control effect (from control value, number of lesions): 5
[4]
  evaluation value of control effect (from control value, number of lesions): 5
[5]
  evaluation value of control effect (from control value, lesion height): 5
[6]
  evaluation value of control effect (from control value, lesion height): 5
[7]
  evaluation value of control effect (from control value, lesion height): 5

## Cc1nc(C(F)F)c(C(=O)N(C(=O)c2cc(Cl)nc(Cl)c2)c2ccccc2C(C)CC(C)C)s1 (stereo not shown) [7-188]
[1]
  evaluation value of control effect (from control value, lesion area percentage): 4
[2]
  evaluation value of control effect (from control value, number of lesions): 5
[3]
  evaluation value of control effect (from control value, number of lesions): 5
[4]
  evaluation value of control effect (from control value, number of lesions): 5
[5]
  evaluation value of control effect (from control value, lesion height): 5
[6]
  evaluation value of control effect (from control value, lesion height): 5
[7]
  evaluation value of control effect (from control value, lesion height): 5

## Cc1nc(C(F)F)c(C(=O)N(C(=O)c2sc(C)nc2C(F)F)c2ccccc2CCC(C)C)s1 [7-237]
[1]
  evaluation value of control effect (from control value, lesion area percentage): 4
[2]
  evaluation value of control effect (from control value, number of lesions): 5
[3]
  evaluation value of control effect (from control value, number of lesions): 5
[4]
  evaluation value of control effect (from control value, number of lesions): 5
[5]
  evaluation value of control effect (from control value, lesion height): 5
[6]
  evaluation value of control effect (from control value, lesion height): 5
[7]
  evaluation value of control effect (from control value, lesion height): 5

## Cc1nc(C(F)F)c(C(=O)N(C(=O)c2scnc2C(F)(F)F)c2ccccc2C(C)CC(C)C)s1 (stereo not shown) [7-250]
[1]
  evaluation value of control effect (from control value, lesion area percentage): 4
[2]
  evaluation value of control effect (from control value, number of lesions): 5
[3]
  evaluation value of control effect (from control value, number of lesions): 5
[4]
  evaluation value of control effect (from control value, number of lesions): 5
[5]
  evaluation value of control effect (from control value, lesion height): 5
[6]
  evaluation value of control effect (from control value, lesion height): 5
[7]
  evaluation value of control effect (from control value, lesion height): 5

## Cc1nc(C(F)F)c(C(=O)N(C(=O)c2cccnc2C(F)F)c2ccccc2C(C)CC(C)C)s1 (stereo not shown) [7-270]
[1]
  evaluation value of control effect (from control value, lesion area percentage): 4
[2]
  evaluation value of control effect (from control value, number of lesions): 5
[3]
  evaluation value of control effect (from control value, number of lesions): 5
[4]
  evaluation value of control effect (from control value, number of lesions): 5
[5]
  evaluation value of control effect (from control value, lesion height): 5
[6]
  evaluation value of control effect (from control value, lesion height): 5
[7]
  evaluation value of control effect (from control value, lesion height): 5

## Cc1nc(C(F)F)c(C(=O)N(C(=O)c2cc(Cl)c(Cl)s2)c2ccccc2C(C)CC(C)C)s1 (stereo not shown) [7-274]
[1]
  evaluation value of control effect (from control value, lesion area percentage): 4
[2]
  evaluation value of control effect (from control value, number of lesions): 5
[3]
  evaluation value of control effect (from control value, number of lesions): 5
[4]
  evaluation value of control effect (from control value, number of lesions): 5
[5]
  evaluation value of control effect (from control value, lesion height): 5
[6]
  evaluation value of control effect (from control value, lesion height): 5
[7]
  evaluation value of control effect (from control value, lesion height): 5

## Cc1nc(C(F)F)c(C(=O)N(C(=O)c2onc(Cl)c2Cl)c2ccccc2C(C)CC(C)C)s1 (stereo not shown) [7-277]
[1]
  evaluation value of control effect (from control value, lesion area percentage): 5
[2]
  evaluation value of control effect (from control value, number of lesions): 5
[3]
  evaluation value of control effect (from control value, number of lesions): 5
[4]
  evaluation value of control effect (from control value, number of lesions): 5
[5]
  evaluation value of control effect (from control value, lesion height): 5
[6]
  evaluation value of control effect (from control value, lesion height): 5
[7]
  evaluation value of control effect (from control value, lesion height): 5

## Cc1ncc(C(=O)N(C(=O)c2cc(Cl)no2)c2ccccc2C(C)CC(C)C)s1 (stereo not shown) [7-278]
[1]
  evaluation value of control effect (from control value, lesion area percentage): 4
[2]
  evaluation value of control effect (from control value, number of lesions): 5
[3]
  evaluation value of control effect (from control value, number of lesions): 5
[4]
  evaluation value of control effect (from control value, number of lesions): 5
[5]
  evaluation value of control effect (from control value, lesion height): 5
[6]
  evaluation value of control effect (from control value, lesion height): 5
[7]
  evaluation value of control effect (from control value, lesion height): 5

## Cc1nc(C(F)(F)F)c(C(=O)N(C(=O)c2snnc2C)c2c(Br)cc(OC(F)(F)F)cc2Br)s1 [7-280]
[1]
  evaluation value of control effect (from control value, lesion area percentage): 4
[2]
  evaluation value of control effect (from control value, number of lesions): 5
[3]
  evaluation value of control effect (from control value, number of lesions): 5
[4]
  evaluation value of control effect (from control value, number of lesions): 5
[5]
  evaluation value of control effect (from control value, lesion height): 5
[6]
  evaluation value of control effect (from control value, lesion height): 5
[7]
  evaluation value of control effect (from control value, lesion height): 5

## Cc1nc(C(F)(F)F)c(C(=O)N(C(=O)c2snnc2C(F)F)c2c(Br)cc(OC(F)(F)F)cc2Br)s1 [7-281]
[1]
  evaluation value of control effect (from control value, lesion area percentage): 4
[2]
  evaluation value of control effect (from control value, number of lesions): 5
[3]
  evaluation value of control effect (from control value, number of lesions): 5
[4]
  evaluation value of control effect (from control value, number of lesions): 5
[5]
  evaluation value of control effect (from control value, lesion height): 5
[6]
  evaluation value of control effect (from control value, lesion height): 5
[7]
  evaluation value of control effect (from control value, lesion height): 5

## Cc1nc(C(F)(F)F)c(C(=O)N(C(=O)c2scnc2C(F)F)c2c(Br)cc(OC(F)(F)F)cc2Br)s1 [7-283]
[1]
  evaluation value of control effect (from control value, lesion area percentage): 4
[2]
  evaluation value of control effect (from control value, number of lesions): 5
[3]
  evaluation value of control effect (from control value, number of lesions): 5
[4]
  evaluation value of control effect (from control value, number of lesions): 5
[5]
  evaluation value of control effect (from control value, lesion height): 5
[6]
  evaluation value of control effect (from control value, lesion height): 5
[7]
  evaluation value of control effect (from control value, lesion height): 5

## Cc1nc(C(F)F)c(C(=O)N(C(=O)c2cc(F)nc(F)c2)c2ccccc2C(C)CC(C)C)s1 (stereo not shown) [7-288]
[1]
  evaluation value of control effect (from control value, lesion area percentage): 4
[2]
  evaluation value of control effect (from control value, number of lesions): 5
[3]
  evaluation value of control effect (from control value, number of lesions): 5
[4]
  evaluation value of control effect (from control value, number of lesions): 5
[5]
  evaluation value of control effect (from control value, lesion height): 5
[6]
  evaluation value of control effect (from control value, lesion height): 5
[7]
  evaluation value of control effect (from control value, lesion height): 5
